Measured values published in patent US9018260B2, “Indanesulfamide derivatives” (Eisai R&D Management Co., Ltd., priority 2012, dated 2015).

What was measured:
[1] = tested on: corneal kindled male C57Bl/6 mice; assay: Mouse corneal kindling model; type: in vivo; conditions: for Seizure severity score (Average): Racine's scale
Description: Male C57Bl/6 mice were stimulated twice daily for 10 days. The electric-stimulations with current intensities of 4.0 mA and duration of 3 s (pulse frequency 50 Hz) were applied via corneally placed saline-soaked copper electrodes.
Seizure severity was ranked according to a modified scoring system of the Racine's scale (Clin. Neurophysiol. 1972:32:281-294): Score 1, mild facial clonus and eye blinking; 2, severe facial clonus, head nodding, chewing; 3, unilateral or alternating forelimb clonus; 4, bilateral forelimb clonus with rearing; 5, bilateral forelimb clonus with rearing and falling; 6, tonic fore- and/or hindlimb extension. The fully kindled animals with the severity score 4 or more were used for evaluation.
Test compounds were dissolved in the vehicle (0.45% methyl cellulose/4.5% cremophor/10% DMSO), then orally (p.o.) or intraperitoneally (i.p.) administered to mice. The vehicle was orally administered as controls.
Electric stimulation was applied at 1 hour after p.o. or 20 minutes after i.p administration. Stimulation parameters were the same as during the kindling process. After electric stimulation, seizure severity was recorded for 30 seconds according to the Racine's scale.
Four to ten animals were used for calculation of average seizure severity score at each dose.

Rota rod test = type: in vivo, mouse; conditions: male, ddY, mouse, in vivo, po; dose at which fall off latency shorten by 50% of vehicle control value
Protocol: (§1) Rotarod apparatus (Rota-rod MK-660C, Muromachi-Kikai Co., Ltd.) was used for measurement. The motor was turned on and the rod rotation was continuously accelerated to a rate of 40 rpm over 180 sec.
(§2) Male ddY mice at an age of 5 weeks (Japan SLC) were used. On the experiment day, the mice were pretrained and only the animals able to remain on the rod for at least 60 s were selected for experiment.
(§3) Test compounds were dissolved in the vehicle (0.45% methyl cellulose/4.5% cremophor/10% dimethyl sulfoxide), then orally (p.o.) administered to mice. The vehicle was orally administered as controls. The effects of compounds were studied in groups of six to ten animals.
(§4) Latency for mice to fall off from the rod was measured. The toxic dose at which fall off latency shorten by 50% of vehicle control value (TD50) was calculated.
(§5) Therapeutic index were calculated by dividing the respective TD50 value in rota rod test by the ED50 value determined in the corneal kindling model.

male ddY mice = assay: Rota rod test; type: in vivo, mouse; conditions: route p.o.; TD50 in rota rod test divided by ED50 in corneal kindling model
Protocol: as §1, §2, §3, §4, §5

[2] = dose 10 mg/kg, p.o., stimulation 1 hour after administration
[3] = dose 25 mg/kg, p.o., stimulation 1 hour after administration
[4] = dose 25 mg/kg, p.o., stimulation 1 hour after administration, 25 mg/kg
[5] = dose 50 mg/kg, p.o., stimulation 1 hour after administration
[6] = dose 10 mg/kg, p.o., stimulation 1 hour after administration, 10 mg/kg
[7] = dose 10 mg/kg, i.p., stimulation 20 minutes after administration
[8] = dose 25 mg/kg, i.p., stimulation 20 minutes after administration

SMILES | Seizure severity score (Average) [1, 2] | Seizure severity score (Average) [1, 3] | also measured
Cc1cc(F)cc2c1C(NS(N)(=O)=O)CC2 (racemic) [Example 26, (±)-N-(5-fluoro-7-methyl-2,3-dihydro-1H-inden-1-yl)sulfamide] | 4.25 | 0 | 
Cc1cc(Cl)cc2c1C(NS(N)(=O)=O)CC2 (racemic) [Example 30, (±)-N-(5-chloro-7-methyl-2,3-dihydro-1H-inden-1-yl)sulfamide] | 4.25 | 0.25 | 
NS(=O)(=O)N[C@@H]1c2c(F)ccc(F)c2C[C@H]1F (relative stereo) [Example 15, N-[(1R*,2R*)-2,4,7-trifluoro-2,3-dihydro-1H-inden-1-yl]sulfamide] | 3 | 0 | 
NS(=O)(=O)N[C@@H]1c2c(Cl)ccc(F)c2C[C@H]1F (relative stereo) [Example 16a, (−)-N-[(1R*,2R*)-7-chloro-2,4-difluoro-2,3-dihydro-1H-inden-1-yl]sulfamide] |  |  | Seizure severity score (Average) [1, 4]: 0
NS(=O)(=O)N[C@@H]1c2c(Cl)ccc(F)c2C[C@H]1F (relative stereo) [Example 16b, (+)-N-[(1R*,2R*)-7-chloro-2,4-difluoro-2,3-dihydro-1H-inden-1-yl]sulfamide] | 3.75 |  | Seizure severity score (Average) [1, 4]: 0.5
NS(=O)(=O)N[C@@H]1c2c(Cl)cc(F)cc2C[C@H]1F (relative stereo) [Example 17, (−)-N-[(1R*,2R*)-7-chloro-2,5-difluoro-2,3-dihydro-1H-inden-1-yl]sulfamide] | 2 | 0 | Seizure severity score (Average) [1, 5]: 0
CO[C@@H]1Cc2c(Cl)ccc(F)c2[C@H]1NS(N)(=O)=O (relative stereo) [Example 18, (+)-N-[(1R*,2R*)-4-chloro-7-fluoro-2-methoxy-2,3-dihydro-1H-inden-1-yl]sulfamide] | 2 | 0 | 
Cc1cc(C#N)cc2c1C(NS(N)(=O)=O)C(F)(F)C2 (single isomer, unassigned) [Example 4, N-[(1S*)-5-cyano-2,2-difluoro-7-methyl-2,3-dihydro-1H-inden-1-yl]sulfamide] |  | 0 | Seizure severity score (Average) [1, 5]: 0
Cc1ccc(F)c2c1C(NS(N)(=O)=O)C(F)(F)C2 (single isomer, unassigned) [Example 13, N-[(1S*)-2,2,4-trifluoro-7-methyl-2,3-dihydro-1H-inden-1-yl]sulfamide] | 0 |  | 
NS(=O)(=O)NC1c2c(cccc2C(F)F)CC1(F)F (single isomer, unassigned) [Example 14, N-[(1S*)-7-(difluoromethyl)-2,2-difluoro-2,3-dihydro-1H-inden-1-yl]sulfamide] |  | 0 | 
N#Cc1cc(Cl)c2c(c1)CC[C@H]2NS(N)(=O)=O (single isomer, unassigned) [Example 22b, (−)-N-(7-chloro-5-cyano-2,3-dihydro-1H-inden-1-yl)sulfamide] | 3 |  | Seizure severity score (Average) [1, 4]: 0
NS(=O)(=O)N[C@H]1CCc2cccc(Cl)c21 (single isomer, unassigned) [Example 24, (+)-N-(7-chloro-2,3-dihydro-1H-inden-1-yl)sulfamide] | 3 | 0 | 
Cc1cc(C#N)cc2c1C(NS(N)(=O)=O)CC2 (single isomer, unassigned) [Example 25a, (+)-N-(5-cyano-7-methyl-2,3-dihydro-1H-inden-1-yl)sulfamide] |  | 0 | Seizure severity score (Average) [1, 6]: 1.75
Cc1ccc(F)c2c1[C@@H](NS(N)(=O)=O)CC2 (single isomer, unassigned) [Example 28a, (+)-N-(4-fluoro-7-methyl-2,3-dihydro-1H-inden-1-yl)sulfamide] |  | 0 | Seizure severity score (Average) [1, 6]: 4
NS(=O)(=O)NC1c2c(F)c(F)cc(F)c2CC1(F)F (single isomer, unassigned; (+)) [Example 3, (+)-N-(2,2,4,6,7-pentafluoro-2,3-dihydro-1H-inden-1-yl)sulfamide] | 1.5 | 0 | 
NS(=O)(=O)NC1c2c(F)cc(Cl)cc2CC1(F)F (single isomer, unassigned; (+)) [Example 10, (+)-N-(5-chloro-2,2,7-trifluoro-2,3-dihydro-1H-inden-1-yl)sulfamide] | 0 | 0 | 
NS(=O)(=O)NC1CCc2c(F)ccc(Cl)c21 (single isomer, unassigned; (+)) [Example 20, (+)-N-(7-chloro-4-fluoro-2,3-dihydro-1H-inden-1-yl)sulfamide] |  |  | Seizure severity score (Average) [1, 7]: 3.25; Seizure severity score (Average) [1, 8]: 0
Cc1cccc2c1C(NS(N)(=O)=O)CC2 (single isomer, unassigned; (+)) [Example 27, (+)-N-(7-methyl-2,3-dihydro-1H-inden-1-yl)sulfamide] | 3 | 0 | 
NS(=O)(=O)NC1c2c(ccc(F)c2F)CC1(F)F (single isomer, unassigned; (-)) [Example 5, (−)-N-(2,2,6,7-tetrafluoro-2,3-dihydro-1H-inden-1-yl)sulfamide] | 2 | 0 | ED50 ([1]; Mus musculus, po, dosage where 50% of animals showed seizure severity score 2 or less): 5.7 mg/kg; TD50 (Rota rod test): 404 mg/kg; Therapeutic index (male ddY mice): 70.9
NS(=O)(=O)NC1c2c(Cl)ccc(F)c2CC1(F)F (single isomer, unassigned; (-)) [Example 7, (−)-N-(7-chloro-2,2,4-trifluoro-2,3-dihydro-1H-inden-1-yl)sulfamide] |  |  | Seizure severity score (Average) [1, 7]: 3.5; Seizure severity score (Average) [1, 8]: 0.25
NS(=O)(=O)NC1c2c(ccc(F)c2Cl)CC1(F)F (single isomer, unassigned; (-)) [Example 9, (−)-N-(7-chloro-2,2,6-trifluoro-2,3-dihydro-1H-inden-1-yl)sulfamide] |  | 0 | Seizure severity score (Average) [1, 5]: 0
NS(=O)(=O)NC1CCc2cc(Cl)cc(F)c21 (single isomer, unassigned; (-)) [Example 23, (−)-N-(5-chloro-7-fluoro-2,3-dihydro-1H-inden-1-yl)sulfamide] | 4.25 | 0 | 
NS(=O)(=O)NC1CCc2c(Cl)ccc(F)c21 (single isomer, unassigned; (-)) [Example 31, (−)-N-(4-chloro-7-fluoro-2,3-dihydro-1H-inden-1-yl)sulfamide] | 1.5 | 0 | 
N#Cc1cc(Cl)c2c(c1)CC[C@H]2NS(N)(=O)=O [Example 22a, (+)-N-(7-chloro-5-cyano-2,3-dihydro-1H-inden-1-yl)sulfamide] | 3 |  | Seizure severity score (Average) [1, 4]: 0.25
Cc1cc(C#N)cc2c1[C@@H](NS(N)(=O)=O)CC2 [Example 25b, (−)-N-(5-cyano-7-methyl-2,3-dihydro-1H-inden-1-yl)sulfamide] |  | 0 | Seizure severity score (Average) [1, 6]: 1
Cc1ccc(F)c2c1[C@@H](NS(N)(=O)=O)CC2 [Example 28b, (−)-N-(4-fluoro-7-methyl-2,3-dihydro-1H-inden-1-yl)sulfamide] |  | 0 | Seizure severity score (Average) [1, 6]: 3.75
